# Target: human Lck kinase (UniProt P06239)
# Experiment: Lck inhibition assay (A: radioactivity-based or B: spectrophotometric coupled-enzyme assay)
# Format: biochemical
# Details: read-out: Lck Activity (Ki rating)
# Method: The compounds were evaluated as inhibitors of human Lck kinase using either a radioactivity-based assay or spectrophotometric assay.
# The compounds were assayed as inhibitors of full length bovine thymus Lck kinase (from Upstate Biotechnology, cat. no. 14-106) expressed and purified from baculo viral cells. Lck kinase activity was monitored by following the incorporation of ^33p from ATP into the tyrosine of a random poly Glu-Tyr polymer substrate of composition, Glu:Tyr=4:1 (Sigma, cat. no. P-0275). The following were the final concentrations of the assay components: 0.025 M HEPES, pH 7.6, 10 mM MgCl2, 2 mM DTT, 0.25 mg/ml BSA, 10 μM ATP (1-2 μCi ^33P-ATP per reaction), 5 mg/ml poly Glu-Tyr, and 1-2 units of recombinant human […] kinase. In a typical assay, all the reaction components with the exception of ATP were pre-mixed and aliquoted into assay plate wells. Inhibitors dissolved in DMSO were added to the wells to give a final DMSO concentration of 2.5%. The assay plate was incubated at 30 C. for 10 min before initiating the reaction with ^33P-ATP. After 20 min of reaction, the reactions were quenched with 150 μl of 10% trichloroacetic acid (TCA) containing 20 mM Na3PO4. The quenched samples were then transferred to a 96-well filter plate (Whatman, UNI-Filter GF/F Glass Fiber Filter, cat no. 7700-3310) installed on a filter plate vacuum manifold. Filter plates were washed four times with 10% TCA containing 20 mM Na3PO4 and then 4 times with methanol. 200 μl of scintillation fluid was then added to each well. The plates were sealed and the amount of radioactivity associated with the filters was quantified on a TopCount scintillation counter. The radioactivity incorporated was plotted as a function of the inhibitor concentration. The data was fitted to a competitive inhibition kinetics model to get the Ki for the compound.
# The ADP produced from ATP by the human recombinant Lck kinase-catalyzed phosphorylation of poly Glu-Tyr substrate was quanitified using a coupled enzyme assay (Fox et al (1998) Protein Sci 7, 2249). In this assay one molecule of NADH is oxidised to NAD for every molecule of ADP produced in the kinase reaction. The disappearance of NADH can be conveniently followed at 340 nm.
# The following were the final concentrations of the assay components: 0.025 M HEPES, pH 7.6, 10 mM MgCl2, 2 mM DTT, 5 mg/ml poly Glu-Tyr, and 50 nM of recombinant human Lck kinase. Final concentrations of the components of the coupled enzyme system were 2.5 mM phosphoenolpyruvate, 200 μM NADH, 30 μg/ml pyruvate kinase and 10 μg/ml lactate dehydrogenase.
# In a typical assay, all the reaction components with the exception of ATP were pre-mixed and aliquoted into assay plate wells. Inhibitors dissolved in DMSO were added to the wells to give a final DMSO concentration of 2.5%. The assay plate was incubated at 30° C. for 10 min before initiating the reaction with 150 μM ATP. The absorbance change at 340 nm with time, the rate of the reaction, was monitored on a molecular devices plate reader. The data of rate as a function of the inhibitor concentration was fitted to competitive inhibition kinetics model to get the Ki for the compound.
row,Ki [nM],Structure (SMILES)
1,< 100,COCCNCCCOc1cccc(Nc2nccc(-c3sc(SC)c(C#N)c3C3CCCCC3)n2)c1 [VI-2]
2,< 100,CSc1sc(-c2ccnc(Nc3cccc(OCCCn4ccnc4)c3)n2)c(C2CCCCC2)c1C#N [VI-13]
3,< 100,CSc1sc(-c2ccnc(Nc3cccc(NC(=O)Cc4ccccn4)c3)n2)c(-c2cccnc2)c1C#N [VI-136]
4,< 100,CSc1sc(-c2ccnc(Nc3cccc(NC(=O)Cc4csc(N)n4)c3)n2)c(-c2cccnc2)c1C#N [VI-137]
5,100 to 1000,CSc1sc(-c2ccnc(Nc3cccc(OCCCN4CCC(CO)CC4)c3)n2)c(-c2cccc(OCc3ccccc3)c2)c1C#N [VI-127]
6,< 100,"CSc1sc(-c2nc(Nc3cccc(N)c3)ncc2C)c(C2CCCCC2)c1C#N [Compound V-8, 5-[2-(3-Aminophenylamino)-5-methyl-pyrimidin-4-yl]-4-cyclohexyl-2-methylsulfanyl-thiophene-3-carbonitrile]"
7,100 to 1000,CSc1sc(-c2ccnc(Nc3cccc(OCCCN4CCN(CCO)CC4)c3)n2)c(-c2cccc(OCc3ccccc3)c2)c1C#N [VI-126]
8,100 to 1000,CSc1sc(-c2ccnc(Nc3cccc(OCCCN4CCNCC4)c3)n2)c(-c2cccnc2)c1C#N [VI-123]
9,< 100,CSc1sc(-c2ccnc(Nc3cccc(OCCCN4CCC(O)CC4)c3)n2)c(C2CCCCC2)c1C#N [VI-4]
10,< 100,CSc1sc(-c2ccnc(Nc3cccc(OCCCNCCO)c3)n2)c(C2CCCCC2)c1C#N [VI-3]
11,< 100,CCN1CCN(CCCOc2cccc(Nc3nccc(-c4sc(SC)c(C#N)c4C4CCCCC4)n3)c2)CC1 [VI-9]
12,< 100,CCN(CC)CCC(=O)Nc1cccc(Nc2nccc(-c3sc(SC)c(C#N)c3-c3cccnc3)n2)c1 [VI-140]
13,< 100,CSc1sc(-c2ccnc(Nc3cccc(OCCCN4CCOCC4)c3)n2)c(C2CCCCC2)c1C#N [VI-15]
14,< 100,CSc1sc(-c2ccnc(Nc3cccc(OCCCN4CCN(Cc5ccncc5)CC4)c3)n2)c(C2CCCCC2)c1C#N [VI-11]
15,100 to 1000,CSc1sc(-c2ccnc(Nc3cccc(OCCCO)c3)n2)c(-c2cccc(OCc3ccccc3)c2)c1C#N [VI-124]
16,< 100,CSc1sc(-c2ccnc(Nc3cccc(OCCCN4CCC(CO)CC4)c3)n2)c(C2CCCCC2)c1C#N [VI-5]
17,< 100,CSc1sc(-c2ccnc(Nc3cccc(OCCCN(C)CCO)c3)n2)c(C2CCCCC2)c1C#N [VI-1]
18,< 100,CSc1sc(-c2ccnc(Nc3cccc(OCCCN4CCC(CO)CC4)c3)n2)c(-c2cccc(O)c2)c1C#N [VI-129]
19,100 to 1000,CSc1sc(-c2ccnc(Nc3cccc(OCCCN4CCNCC4)c3)n2)c(-c2cccc(OCc3ccccc3)c2)c1C#N [VI-125]

row,Ki [nM],Structure (SMILES)
1,< 100,"CSc1sc(-c2ccnc(Nc3cccc(NC(=O)CC4CC4)c3)n2)c(-c2cccnc2)c1C#N [VI-138, 3-cyano-4-(3-pyridyl)-5-[2-(3-N-cyclopropylacetamido)-aminophenylamino]-pyrimidin-4-yl-2-thiomethyl thiophene]"
2,< 100,CSc1sc(-c2ccnc(Nc3cccc(OCCCN4CCCC4)c3)n2)c(-c2cccnc2)c1C#N [VI-122]
3,< 100,CSc1sc(-c2ccnc(Nc3cccc(OCCCN4CCC[C@H]4CO)c3)n2)c(C2CCCCC2)c1C#N [VI-6]
4,< 100,CSc1sc(-c2ccnc(Nc3cccc(OCCCN4CCSC4)c3)n2)c(C2CCCCC2)c1C#N [VI-17]
5,100 to 1000,CSc1sc(-c2ccnc(Nc3cccc(OCCCO)c3)n2)c(-c2cccnc2)c1C#N [VI-121]
6,< 100,CSc1sc(-c2ccnc(Nc3cccc(OCCCN4CCSCC4)c3)n2)c(C2CCCCC2)c1C#N [VI-16]
7,< 100,"N#Cc1c(SCc2ccc(O)cc2)sc(-c2ccnc(Nc3ccccc3)n2)c1-c1ccccc1 [IIa-39, 2-(4-Hydroxy-benzylsulfanyl)-4-phenyl-5-(2-phenylamino-pyrimidin-4-yl)-thiophene-3-carbonitrile]"
8,< 100,CSc1sc(-c2ccnc(Nc3cccc(NC(=O)CCC4NC(=O)CNC4=O)c3)n2)c(-c2cccnc2)c1C#N (centres unmarked) [VI-139]
9,< 100,CSc1sc(-c2ccnc(Nc3cccc(OCCCn4cnc(C)c4)c3)n2)c(C2CCCCC2)c1C#N [VI-14]
10,< 100,CSc1sc(-c2ccnc(Nc3cccc(OCCCN4CCNCC4)c3)n2)c(C2CCCCC2)c1C#N [VI-10]
11,< 100,"CSc1sc(-c2ccnc(Nc3cccc(S(N)(=O)=O)c3)n2)c(-c2ccccc2)c1C#N [IIa-38, 3-[4-(4-cyano-5-methylsulfanyl-3-phenyl-thiophen-2-yl)-pyrimidin-2-ylamino]-benzenesulfonamide]"
12,< 100,CSc1sc(-c2ccnc(Nc3cccc(OCCCN4CCN(CCO)CC4)c3)n2)c(C2CCCCC2)c1C#N [VI-7]
13,< 100,"CSc1sc(-c2ccnc(Nc3cccc(O)c3)n2)c(-c2ccccc2)c1C#N [IIa-40, 5-[2-(3-Hydroxy-phenylamino)-pyrimidin-4-yl]-2-methylsulfanyl-4-phenyl-thiophene-3-carbonitrile]"
14,< 100,CSc1sc(-c2ccnc(Nc3cccc(NC(=O)CCN4CCCCC4)c3)n2)c(-c2cccnc2)c1C#N [VI-131]
15,< 100,"CSc1sc(-c2ccnc(Nc3cccc(O)c3)n2)c(-c2cccc(-c3ccncc3)c2)c1C#N [IIa-105, 5-[2-(3-Hydroxy-phenylamino)-pyrimidin-4-yl]-2-methylsulfanyl-4-(3-pyridin-4-yl-phenyl)-thiophene-3-carbonitrile]"
16,< 100,CSc1sc(-c2nc(Nc3cccc(O)c3)ncc2C)c(-c2cccnc2)c1C#N [Compound V-24]
17,< 100,CSc1sc(-c2ccnc(Nc3cccc(OCCCN4CCCC(O)C4)c3)n2)c(C2CCCCC2)c1C#N (centres unmarked) [VI-8]
18,< 100,CSc1sc(-c2ccnc(Nc3cccc(OCCCN4CCN(CCO)CC4)c3)n2)c(-c2cccc(O)c2)c1C#N [VI-128]
19,< 100,CSc1sc(-c2ccnc(Nc3cccc(OCCCN4CCCC4)c3)n2)c(C2CCCCC2)c1C#N [VI-12]

# Source: patent publication US6642227B2, “Inhibitors of c-Jun N-terminal kinases (JNK) and other protein kinases” (Vertex Pharmaceuticals Incorporated, priority 2001, dated 2003)
